According to publication PMC4234217 (ChemistryOpen, 2014):

Assays:
human NTS2 [1] = target: T1, human NTS2 (Homo sapiens, UniProt O95665); test: Radioligand binding at human NTS2 with [3H]NT; details: SEM
human NTS1 = human NTS1 (Homo sapiens, UniProt P30989); details: replacement of Tyr11 by alanine; ref [7]; cited from earlier work
human NTS2 [2] = target: T1, human NTS2; details: replacement of Tyr11 by alanine; ref [7]; cited from earlier work

T1 sequence (O95665 whole entry): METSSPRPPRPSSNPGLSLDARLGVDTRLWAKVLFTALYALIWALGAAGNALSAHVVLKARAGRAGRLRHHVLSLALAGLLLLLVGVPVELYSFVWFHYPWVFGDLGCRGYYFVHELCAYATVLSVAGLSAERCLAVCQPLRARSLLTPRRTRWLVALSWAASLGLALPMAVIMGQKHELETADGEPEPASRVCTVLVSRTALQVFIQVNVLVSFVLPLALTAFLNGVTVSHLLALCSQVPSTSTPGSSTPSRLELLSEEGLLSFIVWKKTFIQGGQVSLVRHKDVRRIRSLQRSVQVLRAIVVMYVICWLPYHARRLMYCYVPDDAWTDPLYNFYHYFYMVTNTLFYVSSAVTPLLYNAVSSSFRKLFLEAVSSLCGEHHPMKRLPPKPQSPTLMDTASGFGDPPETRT
human NTS1, sequence (P30989 whole entry): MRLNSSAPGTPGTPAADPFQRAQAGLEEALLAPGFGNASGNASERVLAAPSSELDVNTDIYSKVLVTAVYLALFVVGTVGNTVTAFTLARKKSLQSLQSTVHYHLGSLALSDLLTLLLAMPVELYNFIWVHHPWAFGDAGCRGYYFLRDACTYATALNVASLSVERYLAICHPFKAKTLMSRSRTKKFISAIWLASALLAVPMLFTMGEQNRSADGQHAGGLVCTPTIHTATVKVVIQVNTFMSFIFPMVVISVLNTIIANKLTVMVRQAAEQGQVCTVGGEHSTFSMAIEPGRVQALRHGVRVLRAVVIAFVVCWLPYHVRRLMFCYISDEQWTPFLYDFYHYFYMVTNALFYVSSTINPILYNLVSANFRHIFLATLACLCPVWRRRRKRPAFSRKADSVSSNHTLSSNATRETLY

Compound	Ki (human NTS2 [1])	reduction of ligand affinity at NTS1 compared to NT(8–13) (human NTS1)	decrease of affinity towards NTS2 compared to NT(8–13) (human NTS2 [2])
CC[C@H](C)[C@H](NC(=O)CN(CCc1ccn2nccc2c1)C(=O)[C@@H]1CCCN1C(=O)[C@H](CCCNC(=N)N)NC(=O)[C@@H](N)CCCNC(=N)N)C(=O)N[C@@H](CC(C)C)C(=O)O [compound 3, [^11N-{5-(2-Aminoethyl)pyrazolo[1,5-a]pyridine}-Gly]NT(8–13)]	520 ± 170 nM	–	–
[^11Ala]NT(8–13)	–	5400 fold	70 fold
